Data as given in patent publication US20100324284A1, “PYRROLOPYRIMIDINE DERIVATIVE AS P13K INHIBITOR AND USE THEREOF” (CHUGAI SEIYAKU KABUSHIKI KAISHA, priority 2008, published 2010).

How the values were obtained:
human PI3K (p110α/p85α) = human PI3K (p110α/p85α) (Homo sapiens, UniProt P42336); assay: Measurement of PI3K inhibitory activity (AlphaScreen GST Detection Kit); type: biochemical; details: 10 μM ATP, 4 μM PI(4,5)P2, read-out: Enzyme inhibitory activity (IC50, μM) PI3K α
Procedure: The inhibitory activity of compounds of the present invention represented by formula (I) was measured with human PI3K (p110α/p85α) prepared in a baculovirus expression system using the AlphaScreen GST Detection Kit (Perkin Elmer, Inc.). A predetermined concentration of the compound of the present invention dissolved in dimethylsulfoxide (DMSO) and PI3K were mixed in a 384-well assay plate and after allowing to stand for 20 minutes at room temperature, 4 μM PI(4,5)P2 (Echelon Corporation) and 10 μM ATP (5 mM Hepes, pH 7.5, 2.5 mM MgCl2) were added to initiate the reaction. After reacting at 37° C. for 15 minutes, GST-GRP1 expressed and purified from Escherichia coli, Anti-GST Acceptor Beads (Perkin Elmer, Inc.), Streptavidin Donor Beads (Perkin Elmer, Inc.) and biotin-PI (3,4,5)P3 (Echelon Corporation) (10 mM Tris-HCl pH 7.4, 150 mM NaCl, 7.5 mM EDTA, 1 mM DTT, 0.1% Tween 20) were added, and after allowing to stand for 1 hour at room temperature, light at 520 to 620 nm emitted as a result of exciting with light at 680 nm was measured with the EnVision measuring instrument (Perkin Elmer, Inc.).
Test Example 1 described above can be performed according to “Analytical Biochemistry, 2003, 313, 234-245; Alexander Gray et al”.

[1] = tested on: human colon cancer cell line HCT116; assay: Cell proliferation inhibitory activity, HCT116 (Cell Counting Kit-8); type: cell-based; details: HCT-116, 96 h, HCT116, 4 days
Procedure: (§1) The cell proliferation inhibitory activity was measured for compounds of the present invention represented by formula (I). Cancer cell proliferation inhibitory activity was measured using the Cell Counting Kit-8 (Dojindo). 2000 cells each of human colon cancer cell line HCT116 purchased from the American Type Culture Collection (Virginia, USA) were seeded into each well of a 96-well culture plate followed by the addition of a predetermined concentration of the compounds and cultivating in a 5% CO2 environment at 37° C. for 4 days. On the fourth day of cultivating, the Cell Counting Kit-8 solution was added and absorbance (measuring wavelength: 450 nm, reference wavelength: 615 nm) was measured in accordance with the protocol provided with the kit.

[2] = tested on: human prostate cancer cell line PC3; assay: Cell proliferation inhibitory activity, PC3 (Cell Counting Kit-8); type: cell-based; details: PC-3, 96 h, PC3, 4 days
Procedure: as §1
(§2) Cancer cell proliferation inhibitory activity was also measured for human lung cancer cell line NCI-H460 and human prostate cancer cell line PC3 purchased from the American Type Culture Collection.

[3] = tested on: human lung cancer cell line NCI-H460; assay: Cell proliferation inhibitory activity, NCI-H460 (Cell Counting Kit-8); type: cell-based; details: 96 h, NCI-H460, 4 days, read-out: Cell proliferation inhibitory activity (IC50, μM) Non-small cell cancer (NCIH460)
Procedure: as §1, §2

Sequence of human PI3K (p110α/p85α) (P42336 whole entry): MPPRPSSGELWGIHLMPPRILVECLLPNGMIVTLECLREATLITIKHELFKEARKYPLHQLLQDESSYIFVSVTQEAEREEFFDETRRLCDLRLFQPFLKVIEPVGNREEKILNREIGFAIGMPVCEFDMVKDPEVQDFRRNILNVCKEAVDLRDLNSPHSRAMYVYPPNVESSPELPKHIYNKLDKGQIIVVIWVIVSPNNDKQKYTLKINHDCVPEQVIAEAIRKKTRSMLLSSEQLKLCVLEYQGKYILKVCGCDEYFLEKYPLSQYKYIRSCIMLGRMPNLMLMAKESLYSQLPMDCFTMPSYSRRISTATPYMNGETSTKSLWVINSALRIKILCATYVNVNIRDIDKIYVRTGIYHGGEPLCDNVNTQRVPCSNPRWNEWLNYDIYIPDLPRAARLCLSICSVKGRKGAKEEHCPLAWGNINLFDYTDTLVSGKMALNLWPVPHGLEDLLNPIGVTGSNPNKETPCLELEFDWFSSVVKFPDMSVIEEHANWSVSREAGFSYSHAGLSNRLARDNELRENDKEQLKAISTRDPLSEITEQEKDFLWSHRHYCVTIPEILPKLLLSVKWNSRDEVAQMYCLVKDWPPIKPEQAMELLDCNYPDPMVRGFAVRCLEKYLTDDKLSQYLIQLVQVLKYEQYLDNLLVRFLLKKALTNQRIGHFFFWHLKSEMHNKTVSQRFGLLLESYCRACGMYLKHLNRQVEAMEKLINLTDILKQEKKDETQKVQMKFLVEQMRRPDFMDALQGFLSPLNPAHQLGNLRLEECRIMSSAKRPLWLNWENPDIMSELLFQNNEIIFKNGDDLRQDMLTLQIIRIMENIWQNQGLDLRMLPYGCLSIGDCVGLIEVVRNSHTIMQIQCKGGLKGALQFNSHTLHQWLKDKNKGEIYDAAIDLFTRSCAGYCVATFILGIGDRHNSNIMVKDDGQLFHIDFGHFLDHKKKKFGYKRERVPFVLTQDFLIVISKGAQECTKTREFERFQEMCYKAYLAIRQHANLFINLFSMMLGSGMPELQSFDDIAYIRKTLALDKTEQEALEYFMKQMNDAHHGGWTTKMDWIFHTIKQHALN
Sequence of human PI3K (p110α/p85α) (P27986 whole entry partner): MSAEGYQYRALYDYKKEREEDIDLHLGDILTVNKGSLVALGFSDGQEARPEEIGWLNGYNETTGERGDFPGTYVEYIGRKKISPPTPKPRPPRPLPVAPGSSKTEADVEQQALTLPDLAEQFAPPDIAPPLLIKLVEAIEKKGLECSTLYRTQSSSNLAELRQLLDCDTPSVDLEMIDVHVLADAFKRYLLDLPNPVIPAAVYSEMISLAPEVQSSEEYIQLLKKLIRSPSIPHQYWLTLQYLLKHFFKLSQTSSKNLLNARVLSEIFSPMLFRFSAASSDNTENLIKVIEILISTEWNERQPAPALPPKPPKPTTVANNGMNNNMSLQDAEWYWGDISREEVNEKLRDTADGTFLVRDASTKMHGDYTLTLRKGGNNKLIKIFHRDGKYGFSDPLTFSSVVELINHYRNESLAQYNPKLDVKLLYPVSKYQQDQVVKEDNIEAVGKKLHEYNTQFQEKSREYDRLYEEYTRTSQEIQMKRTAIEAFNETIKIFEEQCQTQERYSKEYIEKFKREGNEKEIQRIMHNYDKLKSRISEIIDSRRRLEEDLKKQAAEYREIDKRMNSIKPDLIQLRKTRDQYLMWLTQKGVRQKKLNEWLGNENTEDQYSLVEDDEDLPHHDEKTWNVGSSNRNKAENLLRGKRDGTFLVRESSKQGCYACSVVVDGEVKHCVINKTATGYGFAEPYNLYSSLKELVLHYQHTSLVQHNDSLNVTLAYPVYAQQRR

| IC50 (human PI3K (p110α/p85α)) | IC50 [1] | IC50 [2] | IC50 [3] | SMILES |
| --- | --- | --- | --- | --- |
| 0.016 µM | 0.41 µM | 1.14 µM | 0.29 µM | CS(=O)(=O)n1ccc2c(-c3cnc(N)nc3)nc(N3CCOCC3)nc21 [Compound 4-1, 5-(7-methanesulfonyl-2-morpholin-4-yl-7H-pyrrolo[2,3-d]pyrimidin-4-yl)-pyrimidin-2-ylamine] |
| 0.093 µM | 1.45 µM | 3.18 µM | 1.25 µM | Cc1ccc(C(=O)N2CCOCC2)cc1-n1ccc2c(-c3cnc(N)nc3)nc(N3CCOCC3)nc21 [Compound 2-1, {3-[4-(2-amino-pyrimidin-5-yl)-2-morpholin-4-yl-pyrrolo[2,3-d]pyrimidin-7-yl]-4-methyl-phenyl}-morpholin-4-yl-methanone] |
| 0.007 µM | 0.12 µM | 0.18 µM | 0.071 µM | CCN1CCN(c2cc(-n3ccc4c(-c5cnc(N)nc5)nc(N5CCOCC5)nc43)ccn2)CC1 [Compound 1-1, 5-{7-[2-(4-Ethyl-piperazin-1-yl)-pyridin-4-yl]-2-morpholin-4-yl-7H-pyrrolo[2,3-d]pyrimidin-4-yl}-pyrimidin-2-ylamine] |
| 0.093 µM | 0.57 µM | 0.43 µM | 0.17 µM | Nc1ncc(-c2nc(N3CCOCC3)nc3c2ccn3-c2ccc(CN3CCS(=O)(=O)CC3)cc2)cn1 [Compound 3-1, 5-{7-[4-(1,1-dioxo-1λ^6-thiomorpholin-4-ylmethyl)-phenyl]-2-morpholin-4-yl-7H-pyrrolo[2,3-d]pyrimidin-4-yl}-pyrimidin-2-ylamine] |
